Data from the supplement of paper PMC10307832.

Legend:
Assay in all cases: relative viability (nuclei count vs DMSO), 5 days (fraction); higher = more cells survive
[1] = compound: C1=CC2=NC=CN=C2C=C1/C=C/3\C(=O)NC(=O)S3 + Cc1nc(NC(=O)N2CCC[C@H]2C(N)=O)sc1-c1ccnc(C(C)(C)C(F)(F)F)c1 [Alpelisib] (partner 2 µM)
In short: (§1)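 Each reported value is a median over duplicate plates. It expresses relative viability: treated-well nuclei count divided by vehicle-well nuclei count. Lung cancer cell lines in 1536-well plates were dosed by pin tool a day after seeding, alone with one drug or with a fixed anchor-drug dose plus five library-drug doses (not always all listed) in √10 steps, and nuclei were counted after 5 days.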

[2] = compound: CCN1CCN(c2ccc(Nc3cc(N(C)C(=O)Nc4c(Cl)c(OC)cc(OC)c4Cl)ncn3)cc2)CC1 [BGJ398] + C[C@]1(O)C[C@@H](c2nc(-c3ccc4ccc(-c5ccccc5)nc4c3)c3c(N)nccn32)C1 [Linsitinib] (partner 1 µM)
In short: as §1

[3] = compound: CCN1CCN(c2ccc(Nc3cc(N(C)C(=O)Nc4c(Cl)c(OC)cc(OC)c4Cl)ncn3)cc2)CC1 [BGJ398] + CC1(C)CCC(c2ccc(Cl)cc2)=C(CN2CCN(c3ccc(C(=O)NS(=O)(=O)c4ccc(N[C@H](CCN5CCOCC5)CSc5ccccc5)c(S(=O)(=O)C(F)(F)F)c4)cc3)CC2)C1 [Navitoclax] (partner 0.5 µM)
In short: as §1

[4] = compound: CCN1CCN(c2ccc(Nc3cc(N(C)C(=O)Nc4c(Cl)c(OC)cc(OC)c4Cl)ncn3)cc2)CC1 [BGJ398] + CC(=O)c1c(C)c2cnc(Nc3ccc(N4CCNCC4)cn3)nc2n(C2CCCC2)c1=O [Palbociclib] (partner 0.5 µM)
In short: as §1

With UMC-11 the relative viability ([1]; first compound 0.02 µM) was 0.987, the relative viability ([1]; first compound 0.06325 µM) was 1.19 and the relative viability ([1]; first compound 0.2 µM) was 0.989. The relative viability ([1]; first compound 0.6325 µM) was 0.948, the relative viability ([1]; first compound 2 µM) was 0.932 and the relative viability ([2]; first compound 0.01 µM) was 1.01. For the same cell line, the relative viability ([2]; first compound 0.03162 µM) was 0.982, the relative viability ([2]; first compound 0.1 µM) was 1.04 and the relative viability ([2]; first compound 0.3162 µM) was 1.03. It also gave a relative viability ([2]; first compound 1 µM) of 1.01, a relative viability ([3]; first compound 0.01 µM) of 0.343 and a relative viability ([3]; first compound 0.03162 µM) of 0.336. It also gave a relative viability ([3]; first compound 0.1 µM) of 0.314, a relative viability ([3]; first compound 0.3162 µM) of 0.382 and a relative viability ([3]; first compound 1 µM) of 0.307. It also gave a relative viability ([4]; first compound 0.01 µM) of 0.327, a relative viability ([4]; first compound 0.03162 µM) of 0.276 and a relative viability ([4]; first compound 0.1 µM) of 0.36. It also gave a relative viability ([4]; first compound 0.3162 µM) of 0.374 and a relative viability ([4]; first compound 1 µM) of 0.351.
